Tests used:
[1] = system: laser-induced choroidal neovascularization model of a rat; experiment: Test Example 7: anti-angiogenic effect on laser-induced choroidal neovascularization model of rat; assay type: in vivo, Brown Norway rat; conditions: 14 days after laser irradiation, ocular instillation twice a day 5 μL/eye (aflibercept: intravitreal 5 μL/eye once), n=12 or 13, * p<0.05 vs vehicle
Procedure: The mydriasis of the eyeballs of each male Brown Norway rat (n=12 or 13 for each group) was caused with mydriatic eye drops for examination. A ketamine hydrochloride/xylazine hydrochloride (7:1, v/v) mixed solution was intramuscularly administered (1 mL/kg) to the femur for general anesthesia. Then, the right eyeground was observed using a slit lamp, and 8 sites in the retina were irradiated with laser (wavelength: 532 nm, spot size: 80 μm, irradiation time: 0.05 sec, output: 120 mW) using a multicolor laser photocoagulator to prepare laser-induced choroidal neovascularization model animals.
A vehicle of Example 1 or the nanoparticle composition of the present invention obtained in each of Examples 1 and 2 was administered twice a day by ocular instillation (5 μL/eye, 6 hr:18 hr interval) to each model animal from immediately after the laser irradiation to 14 days after the laser irradiation. […]
A choroidal neovascular site was photographed using a confocal microscope (Nikon ECLIPSE TE 2000-U). For choroidal neovascular evaluation, an area (unit: pixel) that contained a newly formed blood vessel and was at the inner side relative to the highest raised portion was calculated using ImageJ (National Institutes of Health). […]

[2] = system: laser-induced choroidal neovascularization model of a cynomolgus monkey; experiment: Test Example 8: laser-induced choroidal neovascularization model of cynomolgus monkey, incidence of grade 4 by fluorescein fundus angiography; assay type: in vivo; conditions: n = 6
Procedure: Twenty-one days before the start of drug administration, both the eyes of each animal (all cases) were irradiated with laser to prepare animal models. Drops of a mydriatic agent were placed in the animal eyes to be irradiated. After confirmation of mydriasis, a mixed solution of ketamine hydrochloride (50 mg/mL) and an aqueous xylazine solution (20 mg/mL) [7:1 (v/v)] was intramuscularly administered (0.2 mL/kg or 10 mg/kg) to each animal. An appropriate amount of a special aid for contact lens placement to the cornea (Scopisol Solution for Eye) was added dropwise to an eyepiece of a retinal laser lens. The retinal laser lens was pressure-bonded to the eyes to be irradiated, and a yellow spot was confirmed. After the confirmation of a yellow spot, 8 sites around the yellow spot excluding the central pit were irradiated with green laser (wavelength: 532 nm, irradiation spot size: 80 μm, irradiation time: 0.1 sec, output: 1000 mW) using a multicolor laser photocoagulator (MC-500, Nidek Co., Ltd.).
According to the test configuration shown in Table 46, a vehicle, the nanoparticle composition of the present invention prepared according to Example 1, and the solution composition obtained in Comparative Example 2 were administered four times a day by ocular instillation for 35 days to the animal. Aflibercept (EYLEA(Registered Trademark) solution for intravitreal injection, Bayer Corp.) was intravitreally injected (once) to the animal.
Ophthalmoscopic examination was carried out during the acclimatization period (day −1) and during the administration period (administration days 7, 14, 21, 28 and 34). Macroscopic examination and light reflex examination were carried out using a portable slit lamp (SL-15, Kowa Co., Ltd.). Drops of a mydriatic agent were placed in the animal eyes. After confirmation of mydriasis, ketamine hydrochloride (50 mg/mL) was intramuscularly administered (0.2 mL/kg or 10 mg/kg) to each animal. The anterior segment of the eye and the ocular media were examined using a portable slit lamp, while the eyegrounds were examined using a head-type binocular indirect ophthalmoscope (IO-aSmall Pupil, Neitz Instruments Co., Ltd.). The eyegrounds were photographed using a fundus camera (VX-10a, Kowa Co., Ltd.) in all cases.
Fluorescein fundus angiography was carried out during the acclimatization period (day −1) and during the administration period (administration days 7, 14, 21, 28 and 34). For examination, a contrast medium (Fluorescite Intravenous Injection 500 mg, Alcon Japan Ltd.) was administered (0.1 mL/kg or 0.1 mL/s) from the cephalic vein of the forearm under mydriasis and anesthesia of the macroscopic examination and the ophthalmoscopic examination. Approximately 1, 3, and 5 minutes after the contrast medium administration, photographs were taken using a fundus camera. Choroidal neovascular grading was carried out on an irradiation spot basis. The fluorescein fundus angiographic images were observed and graded on an irradiation spot basis according to the criteria of Table 47.
The incidences of grades 1 to 4 of each eye at each point in time of examination were each calculated according to the following expression: Incidence of grade (%)=The number of irradiation spots/8×100

For Aflibercept [Aflibercept (EYLEA)], the “choroidal neovascularization area, mean” value [1] was 102931.7* pixel, the “Incidence of grade 4” value ([2]; administration day 7, mean) was 4.2% and the “Incidence of grade 4” value ([2]; administration day 14, mean) was 4.2%. The “Incidence of grade 4” value ([2]; administration day 21, mean) was 4.2%, the “Incidence of grade 4” value ([2]; administration day 28, mean) was 4.2% and the “Incidence of grade 4” value ([2]; administration day 34, mean) was 4.2%. The “Incidence of grade 4” value ([2]; day −1 (acclimatization period, before administration), mean) was 43.8%.
